Source: US20070099259A1, “ELECTROCHEMICAL ASSAY FOR THE IDENTIFICATION OF MICROORGANISMS” (RAPID LABORATORY MICROSYSTEMS INC., priority 2003, published 2007)

How the values were obtained:
P. vulgaris ATCC6380 = assay: Relative respiratory activity with 22 effectors (Example 3); type: cell-based, Proteus vulgaris; details: Proteus vulgaris; for activity at 10000 µM: ATCC6380, read-out: relative %-respiratory activity
Source text: (§1) In this example, each microorganism is subjected to 22 different effector compounds in addition to control measurements. […] For each microorganism, duplicate measurements were made of 22 different effector compounds. In addition, duplicate measurements were made a control test containing no effector compound. One additional measurement was made of a control solution containing the microorganism with ferricyanide but without effector or DCIP.
(§2) In this example, each normalized data set containing duplicate measurements for each of 22 effector compounds is referenced to the duplicate internal controls to allow batch-to-batch comparison. The obtained signals of charge per unit electrode area for the duplicate control measurements are averaged and set at 100% respiratory cycle activity. […] The data set used to generate pattern recognition plots consists of 5 replicate batches (each batch containing duplicate measurements for each of 22 effector compounds) for each cell culture (10 strains). This is used to generate a 50 (columns)×22 (rows) matrix. The matrix is imported into MATLAB (Version 6.0). Factor analysis is performed using the MATLAB Chemometric Toolbox (Version 2.3) and involves the generation of reduced eigenvectors to determine the optimal number of factors, examination of the resulting residuals plots for randomness, and the generation of scores for the first four principle components.

E. faecalis = assay: as above; type: cell-based, Enterococcus faecalis; details: Enterococcus faecalis; for activity at 10000 µM: read-out: relative %-respiratory activity
Source text: as §1, §2

E. aerogenes ATCC13048e = assay: as above; type: cell-based, Enterobacter aerogenes; details: Klebsiella aerogenes, ATCC13048E; for activity at 10000 µM: read-out: relative %-respiratory activity
Source text: as §1, §2

E. coli B = assay: as above; type: cell-based; details: Escherichia coli; for activity at 10000 µM: read-out: relative %-respiratory activity
Source text: as §1, §2

E. coli HB101 = assay: as above; type: cell-based; details: Escherichia coli; for activity at 10000 µM: HB101, read-out: relative %-respiratory activity
Source text: as §1, §2

E. coli JM105 = assay: as above; type: cell-based; details: Escherichia coli; for activity at 10000 µM: JM105, read-out: relative %-respiratory activity
Source text: as §1, §2

E. coli Neotype = assay: as above; type: cell-based; details: Escherichia coli; for activity at 10000 µM: read-out: relative %-respiratory activity
Source text: as §1, §2

P. aeruginosa = assay: as above; type: cell-based, Pseudomonas aeruginosa; details: Pseudomonas aeruginosa; for activity at 10000 µM: read-out: relative %-respiratory activity
Source text: as §1, §2

S. aureus ATCC6538P = assay: as above; type: cell-based, Staphylococcus aureus; details: Staphylococcus aureus, ATCC6538P; for activity at 10000 µM: read-out: relative %-respiratory activity
Source text: as §1, §2

S. cerevisiae = assay: as above; type: cell-based, Saccharomyces cerevisiae; details: Saccharomyces cerevisiae; for activity at 10000 µM: read-out: relative %-respiratory activity
Source text: as §1, §2

[1] = test system: Enterobacter aerogenes ATCC 13048e; assay: Respiration assay (Example 1), electrochemical ferricyanide/DCIP mediator consumption; type: cell-based; details: effector 10 mM
Method: (§3) The ferricyanide solution is added so that the final ferricyanide concentrations is 50 mM.
(§4) The bacterial suspensions were adjusted to a MacFarland Standard of 5.0 (5.0×10sup.8 cfu/mL) or an optical density of 1.2 measured at 625 nm and cell growth was stopped by cooling the bacterial suspension for a minimum of 15 min in an ice-bath.

[2] = test system: Staphylococcus aureus ATCC 6538P; assay: as above; type: cell-based; details: effector 10 mM
Method: as §3, §4

[3] = effector 20 mM, 5 μM DCIP, no effector = 100%, n = 20
[4] = effector 20 mM, 5 μM DCIP, no effector = 100%, n = 26
[5] = effector 20 mM, 5 μM DCIP, no effector = 100%, n = 10
[6] = effector 30 mM, 5 μM DCIP, no effector = 100%, n = 20
[7] = effector 30 mM, 5 μM DCIP, no effector = 100%, n = 26
[8] = effector 30 mM, 5 μM DCIP, no effector = 100%, n = 10
[9] = 5 μM DCIP, 50 mM ferricyanide, 35° C.

Work on `OC[C@H]1O[C@@H](O[C@H]2[C@H](O)[C@@H](O)C(O)O[C@@H]2CO)[C@H](O)[C@@H](O)[C@H]1O` (stereo partly drawn) [D-lactose] yielded an activity at 20000 µM (P. vulgaris ATCC6380; ATCC6380, effector 20 mM, 5 μM DCIP, no effector = 100%, n = 20) of 162%, an activity at 20000 µM (E. faecalis; [3]) of 123% and an activity at 20000 µM (E. aerogenes ATCC13048e; [4]) of 268%. It also gave an activity at 20000 µM (E. coli B; [5]) of 164%, an activity at 20000 µM (E. coli HB101; HB101, effector 20 mM, 5 μM DCIP, no effector = 100%, n = 18) of 192% and an activity at 20000 µM (E. coli JM105; JM105, effector 20 mM, 5 μM DCIP, no effector = 100%, n = 10) of 115%. The activity at 20000 µM (E. coli Neotype; [4]) was 150%, the activity at 20000 µM (P. aeruginosa; effector 20 mM, 5 μM DCIP, no effector = 100%, n = 18) was 108% and the activity at 20000 µM (S. aureus ATCC6538P; [3]) was 138%. For the same molecule, the activity at 20000 µM (S. cerevisiae; [5]) was 126%.

With `OC[C@@H](O)[C@@H](O)[C@H](O)[C@@H](O)CO` [D-sorbitol] the activity at 30000 µM (P. vulgaris ATCC6380; ATCC6380, effector 30 mM, 5 μM DCIP, no effector = 100%, n = 20) was 186%, the activity at 30000 µM (E. faecalis; [6]) was 179% and the activity at 30000 µM (E. aerogenes ATCC13048e; [7]) was 260%. For the same molecule, the activity at 30000 µM (E. coli B; [8]) was 136%, the activity at 30000 µM (E. coli HB101; HB101, effector 30 mM, 5 μM DCIP, no effector = 100%, n = 18) was 124% and the activity at 30000 µM (E. coli JM105; JM105, effector 30 mM, 5 μM DCIP, no effector = 100%, n = 10) was 168%. For the same molecule, the activity at 30000 µM (E. coli Neotype; [7]) was 111%, the activity at 30000 µM (P. aeruginosa; effector 30 mM, 5 μM DCIP, no effector = 100%, n = 18) was 104% and the activity at 30000 µM (S. aureus ATCC6538P; [6]) was 167%. It also gave an activity at 30000 µM (S. cerevisiae; [8]) of 113%.

`O=[N+]([O-])[O-].[K+]` [nitrate, potassium nitrate] showed a slope [1, 9] of 3.7 μC/min, a normalized slope ([1]; area normalized) of 2.2 μC/min*mm^2 and a relative activity ([1]; buffer set as 100%) of 23%. For the same molecule, the slope [2, 9] was 6.9 μC/min, the normalized slope ([2]; area normalized) was 4.1 μC/min*mm^2 and the relative activity ([2]; buffer set as 100%) was 76%.

Work on `O=CO` [Formic acid] yielded an activity at 10000 µM (P. vulgaris ATCC6380) of 222%, an activity at 10000 µM (E. faecalis) of 157% and an activity at 10000 µM (E. aerogenes ATCC13048e) of 124%. For the same molecule, the activity at 10000 µM (E. coli B) was 132%, the activity at 10000 µM (E. coli HB101) was 163% and the activity at 10000 µM (E. coli JM105) was 136%. For the same molecule, the activity at 10000 µM (E. coli Neotype) was 114%, the activity at 10000 µM (P. aeruginosa) was 120% and the activity at 10000 µM (S. aureus ATCC6538P) was 298%. The activity at 10000 µM (S. cerevisiae) was 132%.

`NCCCC[C@H](N)C(=O)O` [L-lysine] showed an activity at 10000 µM (P. vulgaris ATCC6380) of 219%, an activity at 10000 µM (E. faecalis) of 243% and an activity at 10000 µM (E. aerogenes ATCC13048e) of 125%. The activity at 10000 µM (E. coli B) was 100%, the activity at 10000 µM (E. coli HB101) was 125% and the activity at 10000 µM (E. coli JM105) was 118%. For the same molecule, the activity at 10000 µM (E. coli Neotype) was 101%, the activity at 10000 µM (P. aeruginosa) was 186% and the activity at 10000 µM (S. aureus ATCC6538P) was 159%. It also gave an activity at 10000 µM (S. cerevisiae) of 240%.
